Test results reported in patent publication US10188633B2, “Identification of small molecules that facilitate therapeutic exon skipping” (The Regents of the University of California, priority 2011, dated 2019).
Where a name gives a salt, the structure may show the parent alone.

Legend:
exon skipping = test: Counter screens, 16 point titrations and mdx mouse myotubes (validation of lead hits); format: cell-based
Source text: The cell line, which was adapted to allow the screening of thousands of compounds in multiple replicates, was obtained from Dr. Qi Lu. […]

DMD exon 51 [1] = test: DMD exon 51 skipping in reprogrammed DMD patient fibroblasts fused to myotubes (GM05017, iDRM05017) with exon 51 AO; format: cell-based, human; conditions: compound added 24 h after AO for two days; nested RT-PCR exons 43-52
Method: (A) Differentiated primary mouse myotubes were transfected either with 100 nM 2′-O-methyl M23D, which targets exon 23 splice donor region or mock transfected for 24 hours after which the transfection reagent was removed, and myotubes were treated with different concentrations of Dantrolene for 48 hours. Nested RT-PCR was performed on cDNA between exons 20-26, as previously described. The 901 bp band is the full-length mRNA product, the 688 bp mRNA product is a single skip of exon 23, and the 550 bp mRNA product is a double skip of exons 22 and 23. (B) Mouse Dmd exon 23-skipped transcript levels were quantified using a taqman assay with primer-probe sets spanning the splice junction created by an exon 23 skip (22-24 join) relative to primers amplifying the splice junction of exons 22 and 23 (representing the full length mRNA), as previously described. […] Error bars represent standard deviation of qRT-PCR triplicates. (C) Patient derived fibroblasts with exon 45-50 deletion (confirmed by microarray, see FIG. 6) were immortalized with lentiviral hTERT and transduced with inducible lentiviral MyoD [26]. Cells were grown to confluence, induced for MyoD activity, and fused for 10 days in low serum differentiation media. On Day 7, h51AON [5′ […] 3′] (SEQ ID NO:2) (same sequence as Pro051) within human exon 51 was added at concentrations indicated. Twenty-four hours later Dantrolene or vehicle was added. Cells were harvested 2 days later and total RNA isolated. RT-PCR amplified a fragment of cDNA from exons 42-53 which was followed by a nested PCR to generate a fragment spanning exons 43-52. The 540 bp product is the full length DMD mRNA species and the 307 bp product indicates the exon 51 skip isoform. Quantitation was performed using the Agilent Bioanalyzer and represented as the skip/full-length mRNA ratio.
Patient fibroblasts with a DMD exon 45-50 deletion were immortalized and transduced with a lenti-viral vector expressing inducible MyoD to create iDRMs (inducibly directly reprogrammable myotubes, specifically iDRM05017s). iDRM05017s were induced for MyoD activity and then cultured for 10 days in fusion media. On Day 7, AO was added for twenty-four hours then removed and Piperacetazine, Trifluoperazine Dihydrochloride, Fluphenazine Dihydrochloride or vehicle (Dimethyl sulfoxide; DMSO) were added in fresh media. After two days total RNA was harvested, cDNA reverse transcribed with a DMD specific primer in exon 54, and exon 51 skipping was detected by nested RT-PCR spanning exons 43-52. Quantitation of exon 51 skipping was performed using the Agilent Bioanalyzer and is represented as the proportion of exon 51 skipping. Error bars represent the standard deviation (SD) of 3 independent wells.
Patient fibroblasts were transduced with HTERT and an inducible MyoD vector [26]. […] Exon 51 skipping activity was assessed in the context of transfecting an exon 51 2′-O-methyl AO with equivalent sequence to Pro051 seven days after fusion. This AO is directed at an exonic splicing enhancer (ESE) sequence within exon 51. The AO was removed prior to addition of dantrolene and cultures were harvested two days later. A nested RT-PCR was performed between DMD exons 43-52 and levels of exon 51 skipping were determined by quantitating capillary electrophoresis separated fragments representing skipped and unskipped DMD mRNA.

[2] = tested on: human DMD exon 50 GFP based reporter; test: BioMol high throughput screen in Ex50-GFP reporter C2C12 myoblasts, with or without AON6; format: cell-based, mouse; conditions: compound 10 uM; for Average Fluorescence (n = 3): average of 3 replicate plates
Source text: Small molecule libraries were screened for exon skipping promoting activity in C2C12 myoblasts expressing a human DMD exon 50 GFP based reporter. […] In the reporter cells, successful skipping of DMD exon 50 creates in-frame GFP expression. Number of cells that were fluorescing was quantified using a high content cell imager in 384 well plate format. Fluorescence was normalized by subtracting the average fluorescence value of the carrier (DMSO) controls. Fluorescence readouts are plotted for the BioMol library screen both with (+AO) and without (−AO) from Source Plate 1 (containing the Orphan Ligand, Ion Channel, Enzyme Inhibitor, and Endocannabanoid libraries, n=300). Each point for the DMSO controls, all compounds, and the Top 5% from Source Plate 1 (n=15) represents the average normalized fluorescence of 6 replicates in the −AO screen and 3 replicates in the +AO screen. […] Individual points for dantrolene are plotted with the bold horizontal line indicating the median. The short horizontal lines interspersed among the data points indicate 1, 2, and 3 standard deviations away from the DMSO treatment mean fluorescence.
In contrast to prior screens aimed at identifying small molecules which impact exon skipping, our screen is unique at least because it relies on robust quantitation of a skipping reporter in the context of a muscle lineage cell in the presence and absence of suboptimal AO. These screens were performed using a mouse muscle cell line (C2C12) expressing a human DMD exon 50 GFP based reporter selected to minimize experimental variation and sensitivity in the context of an automated and quantitative fluorescent scanning system.
AO was added prior to small molecule incubation in an effort to identify molecules that facilitate AO skipping rather than AO delivery. The fluorescence induced by each compound was normalized to a vehicle controls per plate to correct for plate to plate variability. Fluorescence was averaged across replicate plates (n=6 without AO screen, n=3 with AO screen). Compounds were rank ordered based on average intensity of fluorescence and difference between the without AO and with AO screen (FIG. 1 and Table 2).
(§1) A stable clone was generated from C2C12 cells transfected with a human exon 50 DMD GFP reporter (ex50GFP) that has been previously described. Ex50GFP reporter myoblasts were seeded into uncoated 384 well plates and were incubated for 4 hours either with or without 300 nM of 2′-O-methyl phosphorothioate AON6 [5′[…] 3′ (SEQ ID NO:1)] targeting the human exon 50 splice donor site. Cells were transfected with AON6 using the FUGENE (Roche) transfection reagent per manufacturer's instructions. Following AON6 incubation, each component of the BioMol library (n=503) was screened at 10 uM concentration with a final concentration of the DMSO carrier being 1%. Forty-eight hours later fluorescence was measured using the MicroXpress high content imager and analyzed using MetaXpress. Immediately preceding imaging, DNA was stained with Hoescht for 30 min. The BioMol screen without AO (−AO) was performed in 6 replicates, and the with AO (+AO) screen was performed in 3 replicates. For the screen analysis raw fluorescence values were normalized to carrier controls present on each plate by subtracting the values. Negative fluorescence values were set to 0. The data from each compound were averaged from all replicates. For secondary screening by 12 or 16 point dose response, Ex50GFP myoblasts or C2C12 cells without the reporter were seeded on uncoated 384 well plates. A sub-optimal dose of AON6 targeting DMD exon 50 was added for 4 hours.

[3] = tested on: human DMD exon 50 GFP based reporter; test: Secondary screening, 12 or 16 point titrations on the DMD exon 50 reporter cell line with or without AON6; format: cell-based, mouse
Method: 12 or 16 point titrations of compounds were added to the Ex50-GFP and C2C12 myoblasts either with or without AON6.
as §1, with “hours. Following the 4 hour incubation, a compound dilution was added (beginning at 100 uM with 1:1 dilutions) for either 12 or 16 points. After a 48 hour incubation with compounds, DNA was stained with Hoescht, and fluorescence determined using the high content imager and analyzed with MetaXpress.” for “hours.”

DMD exon 51 [4] = conditions: cited from earlier work
[5] = Without AON6 screen, 48 h, normalized to DMSO carrier controls
[6] = With AON6 screen, 48 h, fluorescence normalized by subtracting DMSO carrier controls
[7] = With AON6 screen, 48 h, normalized to DMSO carrier controls

Cc1c2ccncc2c(C)c2c1[nH]c1ccccc12 [Ellipticine]
efficacy in counter screen and on mdx mouse myotubes (exon skipping): showing efficacy in counter screen and on mdx mouse myotubes

COC(=O)Nc1nc2cc(Sc3ccccc3)ccc2[nH]1 [Fenbendazole]
efficacy in counter screen and on mdx mouse myotubes (exon skipping): showing efficacy in counter screen and on mdx mouse myotubes

OCCN1CCN(CCCN2c3ccccc3Sc3ccc(C(F)(F)F)cc32)CC1 [Fluphenazine dihydrochloride]
AO directed DMD exon 51 skipping (DMD exon 51 [1]): enhance AO directed DMD exon 51 skipping

CN(C)CCCn1cc(C2=C(c3c[nH]c4ccccc34)C(=O)NC2=O)c2ccccc21 [GF 109203X]
Fluorescence Plate 1 [2, 5]: 22.19
Fluorescence Plate 2 [2, 5]: 15.01
Fluorescence Plate 3 [2, 5]: 13.67
Fluorescence Plate 4 [2, 5]: 66.78
Fluorescence Plate 5 [2, 5]: 64.46
Fluorescence Plate 6 [2, 5]: 66.48
Average Fluorescence (n = 6) ([2]; Without AON6 screen, average of 6 replicate plates): 41.76
efficacy in counter screen and on mdx mouse myotubes (exon skipping): showing efficacy in counter screen and on mdx mouse myotubes

CC1CNCCN1S(=O)(=O)c1cccc2cnccc12 (centres unmarked) [H-7]
Fluorescence Plate 1 [2, 6]: 29.03
Fluorescence Plate 2 [2, 7]: 30.45
Fluorescence Plate 3 [2, 7]: 12.11
Average Fluorescence (n = 3) ([2]; With AON6 screen): 23.87
increase in fluorescence in the Ex50-GFP+AO compared to the reporter line without AO ([3]; 12 or 16 point titrations from 100 uM, positivity criterion (FIG. 5 legend: >10%)): 10%
dose response in Ex50-GFP reporter ([3]; 12 or 16 point titrations with AON6): evidence of a dose response

CCCCN(CCCC)CCC(O)c1cc2c(Cl)cc(Cl)cc2c2cc(C(F)(F)F)ccc12.Cl (centres unmarked) [Halofantrine hydrochloride]
efficacy in counter screen and on mdx mouse myotubes (exon skipping): showing efficacy in counter screen and on mdx mouse myotubes

CC1=CC(=O)c2ccccc2C1=O [Menadione]
AO directed DMD exon 51 skipping (DMD exon 51 [1]): enhances AO directed DMD exon 51 skipping

O=C(Nc1ccc([N+](=O)[O-])cc1Cl)c1cc(Cl)ccc1O [Niclosamide]
efficacy in counter screen and on mdx mouse myotubes (exon skipping): showing efficacy in counter screen and on mdx mouse myotubes

O=c1[nH]c2ccccc2n1C1CCN(CCCC(c2ccc(F)cc2)c2ccc(F)cc2)CC1 [PIMOZIDE]
efficacy in counter screen and on mdx mouse myotubes (exon skipping): showing efficacy in counter screen and on mdx mouse myotubes

COC(=O)[C@H]1[C@H]2C[C@@H]3c4[nH]c5cc(OC)ccc5c4CCN3C[C@H]2C[C@@H](OC(=O)c2cc(OC)c(OC)c(OC)c2)[C@@H]1OC [Reserpine]
efficacy in counter screen and on mdx mouse myotubes (exon skipping): showing efficacy in counter screen and on mdx mouse myotubes

COc1ccc2c(c1)CN(C)CCS2 [RyCal S107]
AO directed DMD exon 51 skipping (DMD exon 51 [1]): enhance AO directed DMD exon 51 skipping

CCOC(=O)Oc1c(OC)cc(C(=O)O[C@@H]2C[C@@H]3CN4CCc5c([nH]c6cc(OC)ccc56)[C@H]4C[C@@H]3[C@H](C(=O)OC)[C@H]2OC)cc1OC [Syrosingopine]
efficacy in counter screen and on mdx mouse myotubes (exon skipping): showing efficacy in counter screen and on mdx mouse myotubes

CN1CCN(CCCN2c3ccccc3Sc3ccc(C(F)(F)F)cc32)CC1 [Trifluoperazine dihydrochloride]
AO directed DMD exon 51 skipping (DMD exon 51 [1]): enhance AO directed DMD exon 51 skipping

O=C(O)[C@@H]1[C@H]2C[C@H]3c4[nH]c5ccccc5c4CCN3C[C@@H]2CC[C@@H]1O [Yohimbinic acid]
AO directed DMD exon 51 skipping (DMD exon 51 [1]): enhance AO directed DMD exon 51 skipping

CC(=O)c1ccc2c(c1)N(CCCN1CCC(CCO)CC1)c1ccccc1S2 [piperacetazine]
AO directed DMD exon 51 skipping (DMD exon 51 [1]): enhance AO directed DMD exon 51 skipping

COC(=O)[C@H]1[C@H]2C[C@H]3c4[nH]c5ccccc5c4CCN3C[C@H]2CC[C@@H]1O [rauwolscine hydrochloride]
AO directed DMD exon 51 skipping (DMD exon 51 [1]): enhance AO directed DMD exon 51 skipping

Pro051: systemic 2′-O-methyl modified AO directed against DMD exon 51 (antisense UCAAGGAAGAUGGCAUUUCU; all 2'-O-methyl, backbone not given here)
rescued dystrophin protein levels (DMD exon 51 [4]; systemic 2'-O-methyl AO, phase 1-2a): 1.8-15.6 % of normal
6 minute walk test at 48 weeks (DMD exon 51 [4]; weekly subcutaneous 6 mg/kg, non-placebo controlled extension): modest improvement

Ryanodine
Fluorescence Plate 1 [2, 6]: 7.93
Fluorescence Plate 2 [2, 7]: 28.86
Fluorescence Plate 3 [2, 7]: 13.31
Average Fluorescence (n = 3) ([2]; With AON6 screen): 16.70
AO directed DMD exon 51 skipping (DMD exon 51 [1]): enhance AO directed DMD exon 51 skipping
